Data as given in the supplement of paper PMC11451515.

System: SEM cells
Test: cell viability relative to DMSO control; higher = less cytotoxic
Conditions: 48 h
Procedure, shortened: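 Viability is expressed as a percentage of DMSO wells within each plate, and cell-free wells serve as background. Seeding densities in the 1536-well plates (5 μl) were 500 cells/well for NOMO1 or SEM leukemia cells and 1000 cells/well for P12-Ichikawa. Each line was adapted for at least four passages in each medium. Library compounds in DMSO were pin-dosed at 47 μM to 0.79 nM (11 points, threefold), and CellTiter-Glo One luminescence was read after 48 h at 37°C.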

[1] = HPLM + 10% dialyzed FBS, 0.000781 µM
[2] = HPLM + 10% dialyzed FBS, 0.00234 µM
[3] = HPLM + 10% dialyzed FBS, 0.00702 µM
[4] = HPLM + 10% dialyzed FBS, 0.0211 µM
[5] = HPLM + 10% dialyzed FBS, 0.0632 µM
[6] = HPLM + 10% dialyzed FBS, 0.19 µM
[7] = HPLM + 10% dialyzed FBS, 0.569 µM
[8] = HPLM + 10% dialyzed FBS, 1.71 µM
[9] = HPLM + 10% dialyzed FBS, 5.12 µM
[10] = HPLM + 10% dialyzed FBS, 15.4 µM
[11] = HPLM + 10% dialyzed FBS, 46.1 µM
[12] = RPMI 5 mM glucose + 10% FBS, 0.000781 µM
[13] = RPMI 5 mM glucose + 10% FBS, 0.00234 µM
[14] = RPMI 5 mM glucose + 10% FBS, 0.00702 µM
[15] = RPMI 5 mM glucose + 10% FBS, 0.0211 µM
[16] = RPMI 5 mM glucose + 10% FBS, 0.0632 µM
[17] = RPMI 5 mM glucose + 10% FBS, 0.19 µM
[18] = RPMI 5 mM glucose + 10% FBS, 0.569 µM
[19] = RPMI 5 mM glucose + 10% FBS, 1.71 µM
[20] = RPMI 5 mM glucose + 10% FBS, 5.12 µM
[21] = RPMI 5 mM glucose + 10% FBS, 15.4 µM
[22] = RPMI 5 mM glucose + 10% FBS, 46.1 µM
[23] = RPMI 5 mM glucose + 10% dialyzed FBS, 0.000781 µM
[24] = RPMI 5 mM glucose + 10% dialyzed FBS, 0.00234 µM
[25] = RPMI 5 mM glucose + 10% dialyzed FBS, 0.00702 µM
[26] = RPMI 5 mM glucose + 10% dialyzed FBS, 0.0211 µM
[27] = RPMI 5 mM glucose + 10% dialyzed FBS, 0.0632 µM
[28] = RPMI 5 mM glucose + 10% dialyzed FBS, 0.19 µM
[29] = RPMI 5 mM glucose + 10% dialyzed FBS, 0.569 µM
[30] = RPMI 5 mM glucose + 10% dialyzed FBS, 1.71 µM
[31] = RPMI 5 mM glucose + 10% dialyzed FBS, 5.12 µM
[32] = RPMI 5 mM glucose + 10% dialyzed FBS, 15.4 µM
[33] = RPMI 5 mM glucose + 10% dialyzed FBS, 46.1 µM

SMILES	cell viability [1] [%]	cell viability [2] [%]	cell viability [3] [%]	cell viability [4] [%]	cell viability [5] [%]	cell viability [6] [%]	cell viability [7] [%]	cell viability [8] [%]	cell viability [9] [%]	cell viability [10] [%]	cell viability [11] [%]	cell viability [12] [%]	cell viability [13] [%]	cell viability [14] [%]	cell viability [15] [%]	cell viability [16] [%]	cell viability [17] [%]	cell viability [18] [%]	cell viability [19] [%]	cell viability [20] [%]	cell viability [21] [%]	cell viability [22] [%]	cell viability [23] [%]	cell viability [24] [%]	cell viability [25] [%]	cell viability [26] [%]	cell viability [27] [%]	cell viability [28] [%]	cell viability [29] [%]	cell viability [30] [%]	cell viability [31] [%]	cell viability [32] [%]	cell viability [33] [%]
CC(C)(O)CNc1nc(Nc2ccnc(C(F)(F)F)c2)nc(-c2cccc(C(F)(F)F)n2)n1	106	89	101	105	91.3	109	110	93.5	67.2	33.1	24.6	99.5	84.7	119	107	80.7	122	117	64.7	31.3	15.8	14.6	105	89.8	112	107	106	114	122	88.7	44.6	21.4	14.7
c1ccc2c(-c3cnn4cc(-c5ccc(N6CCNCC6)cc5)cnc34)ccnc2c1	75.6	78.2	121	125	139	130	122	100	2.9	1.26	2.65	84	71.6	140	138	153	122	121	97.1	61	7.66	3.32	69	72.2	118	147	151	142	114	89.2	66.7	45.9	3.66
O=P(O)(O)C(O)(Cc1cccnc1)P(=O)(O)[O][Na] (stereo unspecified)	83	67.3	100	21.8	102	111	104	108	111	107	116	89.6	51.7	91	14.2	95.7	100	90.3	96.8	110	100	112	96.1	52.9	92.7	22.1	121	116	113	102	118	108	123
COc1cc(/C=C/C(=O)CC(=O)/C=C/c2ccc(O)c(OC)c2)ccc1O	66.6	96.9	108	98.8	102	99.5	104	118	90.4	15.1	5.19	77.5	114	119	128	137	120	120	128	99.5	23.6	5.59	72.8	96.8	106	108	107	115	107	118	90.8	34.8	5.02
CCOP(=O)(OCC)C(C)NC(=O)N(CCCl)N=O (stereo unspecified)	101	109	125	114	126	128	129	122	119	127	94.9	90.7	98.1	98.7	104	101	111	78.4	95.5	87.1	84.6	74.4	108	97	116	122	112	127	127	137	107	103	81.2
COc1ccc(-c2c(-c3ccc(O)cc3O)n[nH]c2C)cc1	98.3	95.8	114	108	110	108	88.8	95.5	86	62.2	51.1	114	104	107	109	108	108	103	84.3	84.1	44	20.9	98.6	96.8	93	101	103	108	96.2	99.5	87	54.4	30.9
COc1ccc(-c2nc3cc(C4=NNC(=O)CC4C)ccc3[nH]2)cc1 (stereo unspecified)	86.8	90.5	99.6	107	109	106	98.7	101	111	92.5	75.4	92.2	95.2	105	102	112	121	111	120	101	119	90.8	93.6	91.6	111	110	113	110	107	120	110	115	84.4
